Assay results as given in PMC7327383, “The affinity and selectivity of α‐adrenoceptor antagonists, antidepressants, and antipsychotics for the human α1A, α1B, and α1D‐adrenoceptors” (Pharmacology Research & Perspectives, 2020).
pKd: −log10 of the molar value. Like-named read-outs stand apart in the source and are kept apart here.

Experiments:
human α1A-adrenoceptor = molecular target: T1, human α1A-adrenoceptor (Homo sapiens, UniProt P35348); experiment: [3H]prazosin whole-cell competition binding, CHO-α1A cells
T1 construct: CHO cells stably expressing either the full‐length human α1A, α1B, or α1D‐adrenoceptor
T1 sequence (P35348 1-466): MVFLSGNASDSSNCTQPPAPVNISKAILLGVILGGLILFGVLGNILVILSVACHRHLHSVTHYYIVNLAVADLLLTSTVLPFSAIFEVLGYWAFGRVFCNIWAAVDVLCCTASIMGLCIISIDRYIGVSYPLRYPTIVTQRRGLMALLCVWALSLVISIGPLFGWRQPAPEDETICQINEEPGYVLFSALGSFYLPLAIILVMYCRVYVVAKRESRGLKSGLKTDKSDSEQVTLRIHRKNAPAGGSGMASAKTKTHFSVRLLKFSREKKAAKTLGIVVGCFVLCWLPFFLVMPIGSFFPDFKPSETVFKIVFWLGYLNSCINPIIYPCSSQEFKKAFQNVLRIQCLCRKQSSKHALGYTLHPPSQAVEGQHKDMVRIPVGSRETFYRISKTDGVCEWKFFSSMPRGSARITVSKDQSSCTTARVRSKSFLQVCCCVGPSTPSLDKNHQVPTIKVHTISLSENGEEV

human α1B-adrenoceptor = molecular target: T2, human α1B-adrenoceptor (Homo sapiens, UniProt P35368); experiment: [3H]prazosin whole-cell competition binding, CHO-α1B cells
T2 construct: CHO cells stably expressing either the full‐length human α1A, α1B, or α1D‐adrenoceptor
T2 sequence (P35368 1-520): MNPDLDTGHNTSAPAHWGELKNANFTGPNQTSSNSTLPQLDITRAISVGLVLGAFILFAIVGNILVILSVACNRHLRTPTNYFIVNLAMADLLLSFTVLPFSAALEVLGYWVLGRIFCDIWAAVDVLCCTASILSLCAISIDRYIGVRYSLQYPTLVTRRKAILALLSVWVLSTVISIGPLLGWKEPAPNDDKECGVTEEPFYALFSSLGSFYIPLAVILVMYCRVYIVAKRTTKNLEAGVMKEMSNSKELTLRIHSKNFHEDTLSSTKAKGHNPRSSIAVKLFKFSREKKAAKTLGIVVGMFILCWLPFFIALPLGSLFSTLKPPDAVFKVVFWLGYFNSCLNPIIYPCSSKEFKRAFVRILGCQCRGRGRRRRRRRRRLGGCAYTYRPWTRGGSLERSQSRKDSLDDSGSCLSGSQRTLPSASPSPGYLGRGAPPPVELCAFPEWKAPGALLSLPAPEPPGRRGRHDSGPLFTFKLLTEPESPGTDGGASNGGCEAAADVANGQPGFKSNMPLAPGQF

[1] = molecular target: T3, full-length human α1D-adrenoceptor (Homo sapiens, UniProt P25100); experiment: [3H]prazosin whole-cell competition binding, CHO-α1D cells
T3 sequence (P25100 1-572): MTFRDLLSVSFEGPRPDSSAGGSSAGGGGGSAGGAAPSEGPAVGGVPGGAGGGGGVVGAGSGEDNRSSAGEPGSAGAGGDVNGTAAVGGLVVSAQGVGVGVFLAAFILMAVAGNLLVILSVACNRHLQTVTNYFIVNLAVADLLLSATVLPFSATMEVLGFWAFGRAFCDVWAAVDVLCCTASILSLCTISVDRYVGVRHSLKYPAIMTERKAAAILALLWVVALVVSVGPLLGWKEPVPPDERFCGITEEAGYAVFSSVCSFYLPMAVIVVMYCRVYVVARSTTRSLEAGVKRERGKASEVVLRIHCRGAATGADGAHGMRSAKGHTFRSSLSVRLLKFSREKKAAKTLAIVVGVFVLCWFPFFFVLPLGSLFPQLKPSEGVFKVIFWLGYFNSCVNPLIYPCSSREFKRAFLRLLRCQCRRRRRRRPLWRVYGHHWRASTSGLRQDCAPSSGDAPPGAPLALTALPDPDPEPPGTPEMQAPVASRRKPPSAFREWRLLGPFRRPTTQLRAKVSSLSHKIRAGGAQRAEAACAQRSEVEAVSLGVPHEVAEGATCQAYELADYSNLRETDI

[2] = ratio, 1 = no selectivity for a subtype over another
[3] = single-component inhibition curve, given as log KD (negative), mean ± SE mean, read-out: Log KD α1B (converted)
[4] = percentage of inhibition through first component, control
[5] = ratio of KD values, higher α1D affinity (site 1 KD)
[6] = two-component inhibition curve, proportion of site 1
[7] = log KD from 3H-prazosin whole cell binding, CHO cells, mean ± s.e.mean
[8] = single-component inhibition curve, given as log KD (negative), mean ± SE mean
[9] = Log KD α1D, single-component inhibition curve, given as log KD (negative), mean ± SE mean

## COc1cc2nc(N3CCN(C(=O)c4ccco4)[C@H]4CCCC[C@H]43)nc(N)c2cc1OC (racemic) [Cyclazosin]
Human α1A-adrenoceptor; ratio of KD values, printed under α1A = higher α1A affinity, 1.0 under vs = none
  Selectivity ratio α1A vs α1B: 1.6 fold
Human α1A-adrenoceptor; [2]
  selectivity α1A vs 1D: 9.5
Human α1A-adrenoceptor; single-component inhibition curve, given as log KD (negative), mean ± SE mean, read-out: Log KD α1A (converted)
  Kd: 1.29 nM
Human α1B-adrenoceptor; [2]
  selectivity α1B vs α1D: 15
Human α1B-adrenoceptor; [3]
  Kd: 2.09 nM
[1]; Log KD α1D site 1, high-affinity component of two-component curve, control, used for selectivity
  pKd: 9.87
[1]; affinity, subtype not given, by Table 1 reached at α1D site 1
  pKd: > 9.60
[1]; low-affinity component of two-component curve, control
  Log KD α1D site 2: −7.44 ± 0.10
[1]; [4]
  % site 1 α1D: 56.8 ± 3.4% site 1
[1]; [5]
  Selectivity ratio α1A vs α1D: 9.5 fold
  Selectivity ratio α1B vs α1D: 15 fold
[1]; [6]
  % site 1 α1D: -9.87 ± 0.06 -7.44 ± 0.10 56.8 ± 3.4% site 1

## COc1ccccc1N1CCN(CC2CN3C(=O)N(C)c4ccccc4C3=N2)CC1 (stereo not drawn) [2-MPMDQ]
Human α1A-adrenoceptor; [7]
  Log KD α1A: -9.06 ± 0.07
Human α1B-adrenoceptor; [7]
  Log KD α1B: -7.37 ± 0.04
[1]; [6]
  % site 1 α1D: 64.0 ± 2.1%

## O=C1Nc2ccccc2C2=NC(CN3CCN(c4ccccc4)CC3)CN12 (stereo not drawn) [2-PMDQ]
Human α1A-adrenoceptor; [7]
  Log KD α1A: -8.19 ± 0.09
Human α1B-adrenoceptor; [7]
  Log KD α1B: -6.95 ± 0.05
[1]; share of site 1 in the two-component inhibition curve
  % site 1 α1D: 57.6 ± 2.8%
[1]; [6]
  % site 1 α1D: 57.6 ± 2.8%

## COc1ccccc1N1CCN(CC2CN3C(=O)N(C)c4ccccc4C3=N2)CC1 (stereo not drawn) [2‐MPMDQ]
Human α1A-adrenoceptor; [8]
  Log KD α1A: −9.06 ± 0.07
Human α1B-adrenoceptor; [8]
  Log KD α1B: −7.37 ± 0.04
[1]; [4]
  % site 1 α1D: 64.0 ± 2.1% site1

## COc1ccccc1N1CCN(CCn2c(=O)[nH]c3c([nH]c4ccccc43)c2=O)CC1 [3-MPPI]
Human α1A-adrenoceptor; [7]
  Log KD α1A: -9.57 ± 0.06
Human α1B-adrenoceptor; [7]
  Log KD α1B: -8.59 ± 0.03

## COc1ccccc1N1CCN(CCn2c(=O)[nH]c3c([nH]c4ccccc43)c2=O)CC1 [3‐MPPI]
Human α1A-adrenoceptor; [8]
  Log KD α1A: −9.57 ± 0.06
Human α1B-adrenoceptor; [8]
  Log KD α1B: −8.59 ± 0.03

## COc1cc2nc(N(C)CCCNC(=O)C3CCCO3)nc(N)c2cc1OC (stereo not drawn) [Alfuzosin]
Human α1B-adrenoceptor; [3]
  Kd: 27.5 nM
[1]; [9]
  pKd: 7.66

## O=C1CCc2ccc(OCCCCN3CCN(c4cccc(Cl)c4Cl)CC3)cc2N1 [Aripiprazole]
[1]; [9]
  pKd: 6.15

## COc1ccccc1N1CCN(CCN2C(=O)CC3(CCCC3)CC2=O)CC1 [BMY7378]
Human α1B-adrenoceptor; [3]
  Kd: 589 nM
[1]; [4]
  % site 1 α1D: 57.7 ± 2.6% site 1
[1]; [6]
  % site 1 α1D: -8.60 ± 0.13 -5.93 ± 0.37 57.7 ± 2.6% site 1

## CC(C)C[C@H]1C(=O)N2CCC[C@H]2[C@]2(O)O[C@](NC(=O)[C@@H]3C=C4c5cccc6[nH]c(Br)c(c56)C[C@H]4N(C)C3)(C(C)C)C(=O)N12 [Bromocriptine]
Human α1B-adrenoceptor; [3]
  Kd: 11 nM
[1]
  pKd: 7.31

## COc1ccccc1OCCNCC(O)COc1cccc2[nH]c3ccccc3c12 (stereo not drawn) [Carvedilol]
[1]; [9]
  pKd: 7.87

## CN(C)CCCN1c2ccccc2Sc2ccc(Cl)cc21 [Chlorpromazine]
Human α1B-adrenoceptor; [3]
  Kd: 14.5 nM
[1]; [4]
  % site 1 α1D: 56.0 ± 5.0% site 1

## CN(C)CCCC1(c2ccc(F)cc2)OCc2cc(C#N)ccc21 (stereo not drawn) [Citalopram]
Human α1B-adrenoceptor; read-out: Log IC50 α1B (converted)
  IC50: > 100000 nM
[1]; [9]
  pKd: 4.91

## CNCCCN1c2ccccc2CCc2ccccc21 [Desipramine]
Human α1B-adrenoceptor; [3]
  Kd: 2690 nM
[1]; [9]
  pKd: 5.46

## O=c1[nH]c2ccccc2n1CCCN1CCC(n2c(=O)[nH]c3cc(Cl)ccc32)CC1 [Domperidone]
Human α1B-adrenoceptor; [3]
  Kd: 3160 nM
[1]; [9]
  pKd: 5.98

## CN(C)CCC=C1c2ccccc2COc2ccccc21 [Doxepin]
Human α1B-adrenoceptor; [3]
  Kd: 661 nM
[1]; [9]
  pKd: 6.27

## CNCC[C@H](Oc1cccc2ccccc12)c1cccs1 [Duloxetine]
Human α1B-adrenoceptor; read-out: Log KD α1B (apparent) (converted)
  Kd: 19500 nM
[1]
  pKd: 5.58

## CNCCC(Oc1ccc(C(F)(F)F)cc1)c1ccccc1 (stereo not drawn) [Fluoxetine]
[1]; [9]
  pKd: 4.90
